Here are results for one molecule from paper PMC5218480 (PLoS ONE, 2017).

The test system of this test is MV-4-11 cells. As to the kind of experiment: Gene expression microarray analysis (Affymetrix PrimeView) and GSEA. Conditions: ProbeSet 11759095_at; LIST D. It is filed as cell-based, human. Also noted: RFU PODN (11730768_x_at) / Fold change /veh PODN (11730768_x_at) / RFU LINC00158 (11744669_a_at) / Fold change /veh LINC00158 (11744669_a_at) / RFU DUSP10 (11751237_a_at) / Fold change /veh DUSP10 (11751237_a_at) / RFU ID3 (11757404_x_at) / Fold change /veh ID3 (11757404_x_at) / RFU PLEKHG5 (11737974_s_at) / Fold change /veh PLEKHG5 (11737974_s_at) / RFU LRRC4B (11730491_at) / Fold change /veh LRRC4B (11730491_at) / RFU GIMAP4 (11747438_a_at) / Fold change /veh GIMAP4 (11747438_a_at) / RFU KRT8 (11758183_x_at) / Fold change /veh KRT8 (11758183_x_at) / RFU CNN1 (11734310_a_at) / Fold change /veh CNN1 (11734310_a_at) / RFU VPS37D (11726825_at) / Fold change /veh VPS37D (11726825_at) / RFU C10orf10 (11716522_x_at) / Fold change /veh C10orf10 (11716522_x_at) / RFU KIR2DL2 /// KIR2DL4 /// KIR2DL5A /// KIR2DL5B /// KIR2DS1 /// KIR2DS2 /// KIR2DS3 /// KIR2DS4 /// KIR3DL3 /// KIR3DL3 /// KIR3DS1 (11738374_at) / Fold change /veh KIR2DL2 /// KIR2DL4 /// KIR2DL5A /// KIR2DL5B /// KIR2DS1 /// KIR2DS2 /// KIR2DS3 /// KIR2DS4 /// KIR3DL3 /// KIR3DL3 /// KIR3DS1 (11738374_at) / RFU C1QL1 (11718748_at) / Fold change /veh C1QL1 (11718748_at) / RFU TMPRSS4 (11747572_a_at) / Fold change /veh TMPRSS4 (11747572_a_at) / RFU HAMP (11756126_x_at) / Fold change /veh HAMP (11756126_x_at) / RFU RNFT2 (11725882_a_at) / Fold change /veh RNFT2 (11725882_a_at) / RFU NR4A2 (11747474_a_at) / Fold change /veh NR4A2 (11747474_a_at) / RFU ABCC12 (11746883_a_at) / Fold change /veh ABCC12 (11746883_a_at) / RFU TMEM136 (11760407_x_at) / Fold change /veh TMEM136 (11760407_x_at) / RFU CLDN22 /// WWC2 (11732394_at) / Fold change /veh CLDN22 /// WWC2 (11732394_at) / RFU HLA-DPB1 (11760878_x_at) / Fold change /veh HLA-DPB1 (11760878_x_at) / RFU SPINT1 (11716480_a_at) / Fold change /veh SPINT1 (11716480_a_at) / RFU GAP43 (11754022_s_at) / Fold change /veh GAP43 (11754022_s_at) / RFU A4GNT (11735810_at) / Fold change /veh A4GNT (11735810_at) / RFU PRB3 (11715151_x_at) / Fold change /veh PRB3 (11715151_x_at) / RFU TUBB4B (11761932_at) / Fold change /veh TUBB4B (11761932_at) / RFU CAPN14 (11732068_a_at) / Fold change /veh CAPN14 (11732068_a_at) / RFU TMCC2 (11721928_a_at) / Fold change /veh TMCC2 (11721928_a_at) / RFU IRGQ (11745062_a_at) / Fold change /veh IRGQ (11745062_a_at) / RFU FAM174B (11720279_a_at) / Fold change /veh FAM174B (11720279_a_at) / RFU TMPRSS4 (11748680_a_at) / Fold change /veh TMPRSS4 (11748680_a_at) / RFU FAM212B (11763350_a_at) / Fold change /veh FAM212B (11763350_a_at) / RFU PLEKHG5 (11743358_a_at) / Fold change /veh PLEKHG5 (11743358_a_at) / RFU ZSCAN30 (11745921_a_at) / Fold change /veh ZSCAN30 (11745921_a_at) / RFU CMKLR1 (11741424_a_at) / Fold change /veh CMKLR1 (11741424_a_at) / RFU LOC101060620 /// MAPK8IP1 (11723275_at) / Fold change /veh LOC101060620 /// MAPK8IP1 (11723275_at) / RFU SPTSSB (11747773_x_at) / Fold change /veh SPTSSB (11747773_x_at) / RFU PRSS12 (11739890_at) / Fold change /veh PRSS12 (11739890_at) / RFU BIN1 (11741810_x_at) / Fold change /veh BIN1 (11741810_x_at) / RFU WNT11 (11732464_a_at) / Fold change /veh WNT11 (11732464_a_at) / RFU C10orf10 (11716521_a_at) / Fold change /veh C10orf10 (11716521_a_at) / RFU C5orf56 (11738089_at) / Fold change /veh C5orf56 (11738089_at) / RFU CYB561 (11721691_x_at) / Fold change /veh CYB561 (11721691_x_at) / RFU ANKRD19P (11752326_a_at) / Fold change /veh ANKRD19P (11752326_a_at) / RFU OR2T12 /// OR2T33 /// OR2T8 (11738714_s_at) / Fold change /veh OR2T12 /// OR2T33 /// OR2T8 (11738714_s_at) / RFU VCAN (11748164_a_at) / Fold change /veh VCAN (11748164_a_at) / RFU JSRP1 (11732532_at) / Fold change /veh JSRP1 (11732532_at) / RFU KRTAP10-11 (11738290_x_at) / Fold change /veh KRTAP10-11 (11738290_x_at) / RFU MYO3A (11730013_a_at) / Fold change /veh MYO3A (11730013_a_at) / RFU EBF3 (11725865_a_at) / Fold change /veh EBF3 (11725865_a_at) / RFU CAMK2N1 (11719241_x_at) / Fold change /veh CAMK2N1 (11719241_x_at) / RFU C5orf56 (11738088_a_at) / Fold change /veh C5orf56 (11738088_a_at) / RFU OLFML3 (11715873_a_at) / Fold change /veh OLFML3 (11715873_a_at) / RFU LOC100653217 /// NTM (11731650_a_at) / Fold change /veh LOC100653217 /// NTM (11731650_a_at) / RFU MAPK11 (11762145_a_at) / Fold change /veh MAPK11 (11762145_a_at) / RFU FIZ1 (11724087_x_at) / Fold change /veh FIZ1 (11724087_x_at) / RFU OASL (11726364_x_at) / Fold change /veh OASL (11726364_x_at) / RFU SOX15 (11748057_x_at) / Fold change /veh SOX15 (11748057_x_at) / RFU CD79A (11719716_a_at) / Fold change /veh CD79A (11719716_a_at) / RFU HIST1H1D (11736915_at) / Fold change /veh HIST1H1D (11736915_at) / RFU CASKIN2 (11723855_a_at) / Fold change /veh CASKIN2 (11723855_a_at) / RFU LOC730098 (11760151_x_at) / Fold change /veh LOC730098 (11760151_x_at) / RFU OR4N2 (11742367_at) / Fold change /veh OR4N2 (11742367_at) / RFU PRRT2 (11749266_a_at) / Fold change /veh PRRT2 (11749266_a_at) / RFU SNX32 (11753110_a_at) / Fold change /veh SNX32 (11753110_a_at) / RFU CDHR5 (11726645_a_at) / Fold change /veh CDHR5 (11726645_a_at) / RFU RCAN1 (11760418_a_at) / Fold change /veh RCAN1 (11760418_a_at) / RFU FAM167A (11723789_a_at) / Fold change /veh FAM167A (11723789_a_at) / RFU FAM26E (11764081_at) / Fold change /veh FAM26E (11764081_at) / RFU ISYNA1 (11749810_s_at) / Fold change /veh ISYNA1 (11749810_s_at) / RFU ACY1 (11761880_at) / Fold change /veh ACY1 (11761880_at) / RFU 11764098_at / Fold change /veh 11764098_at / RFU SAMD14 (11745864_x_at) / Fold change /veh SAMD14 (11745864_x_at) / RFU NPB (11741838_a_at) / Fold change /veh NPB (11741838_a_at) / RFU TMPRSS6 (11731388_a_at) / Fold change /veh TMPRSS6 (11731388_a_at) / RFU KRTAP10-2 (11738614_at) / Fold change /veh KRTAP10-2 (11738614_at) / RFU ARHGAP8 /// PRR5-ARHGAP8 (11727945_x_at) / Fold change /veh ARHGAP8 /// PRR5-ARHGAP8 (11727945_x_at) / RFU KRTAP5-7 /// NADSYN1 (11734609_at) / Fold change /veh KRTAP5-7 /// NADSYN1 (11734609_at) / RFU RASL12 (11751679_a_at) / Fold change /veh RASL12 (11751679_a_at) / RFU CDKN2B (11736163_a_at) / Fold change /veh CDKN2B (11736163_a_at) / RFU PRF1 (11729649_at) / Fold change /veh PRF1 (11729649_at) / RFU, ZNF638 /// ZNF638-IT1 / Fold change vs veh, ZNF638 /// ZNF638-IT1 / RFU, PANK3 / Fold change vs veh, PANK3 / RFU, SH3YL1 / Fold change vs veh, SH3YL1 / RFU, ZEB2 / Fold change vs veh, ZEB2 / RFU, NRIP1 / Fold change vs veh, NRIP1 / RFU, PTTG1IP / Fold change vs veh, PTTG1IP / RFU, CAPN2 / Fold change vs veh, CAPN2 / RFU, MED14 / Fold change vs veh, MED14 / RFU, SNORA58 / Fold change vs veh, SNORA58 / RFU, C1orf63 / Fold change vs veh, C1orf63 / RFU, LRRFIP1 / Fold change vs veh, LRRFIP1 / RFU, NDUFAF7 / Fold change vs veh, NDUFAF7 / RFU, SLC12A2 / Fold change vs veh, SLC12A2 / RFU, IBTK / Fold change vs veh, IBTK / RFU, ESF1 / Fold change vs veh, ESF1 / Fold change vs veh, TMEM50B / RFU, TAOK1 / Fold change vs veh, TAOK1 / RFU, ACBD3 / Fold change vs veh, ACBD3 / RFU, TMA16 / Fold change vs veh, TMA16 / RFU, RWDD3 / Fold change vs veh, RWDD3 / RFU, BCAT1 / Fold change vs veh, BCAT1 / RFU, EDEM3 / Fold change vs veh, EDEM3 / RFU, TMEM33 / Fold change vs veh, TMEM33 / RFU, WDR75 / Fold change vs veh, WDR75 / RFU, AHCTF1 / Fold change vs veh, AHCTF1 / RFU, TFRC / Fold change vs veh, TFRC / RFU, ZDHHC17 / Fold change vs veh, ZDHHC17 / RFU, NOM1 / Fold change vs veh, NOM1 / RFU, ARL8B / Fold change vs veh, ARL8B / RFU, ZBTB11 / Fold change vs veh, ZBTB11 / RFU, TAMM41 / Fold change vs veh, TAMM41 / RFU, KIAA1704 /// LOC100996395 / Fold change vs veh, KIAA1704 /// LOC100996395 / RFU, ING1 / Fold change vs veh, ING1 / RFU, TRMT61B / Fold change vs veh, TRMT61B / RFU, FUBP3 / Fold change vs veh, FUBP3 / RFU, TP53 / Fold change vs veh, TP53 / RFU, TNKS2 / Fold change vs veh, TNKS2 / RFU, ZFP14 / Fold change vs veh, ZFP14 / RFU, ACTR2 / Fold change vs veh, ACTR2 / RFU, PPP3R1 / Fold change vs veh, PPP3R1 / RFU, PIK3R1 / Fold change vs veh, PIK3R1 / RFU, HNRNPA1 / Fold change vs veh, HNRNPA1 / RFU, RNF170 / Fold change vs veh, RNF170 / RFU, ZNF28 / Fold change vs veh, ZNF28 / RFU, RNGTT / Fold change vs veh, RNGTT / RFU, OGT / Fold change vs veh, OGT / RFU, BRD1 / Fold change vs veh, BRD1 / RFU, MARS / Fold change vs veh, MARS / RFU, ZNF655 / Fold change vs veh, ZNF655 / RFU, FAHD1 / Fold change vs veh, FAHD1 / RFU, BDP1 / Fold change vs veh, BDP1 / RFU, LRRCC1 / Fold change vs veh, LRRCC1 / RFU, ARID1A / Fold change vs veh, ARID1A / RFU, ZNF146 / Fold change vs veh, ZNF146 / RFU, ZNF330 / Fold change vs veh, ZNF330 / RFU, GPN3 / Fold change vs veh, GPN3 / RFU, C9orf123 / Fold change vs veh, C9orf123 / RFU, N4BP2L2 / Fold change vs veh, N4BP2L2 / RFU, ARFIP1 / Fold change vs veh, ARFIP1 / RFU, FAM179B / Fold change vs veh, FAM179B / RFU, BCL10 / Fold change vs veh, BCL10 / RFU, UHRF1BP1L / Fold change vs veh, UHRF1BP1L / RFU, BET1 / Fold change vs veh, BET1 / RFU, CNOT2 / Fold change vs veh, CNOT2 / RFU, ZNF268 / Fold change vs veh, ZNF268 / Fold change vs veh, ZNF507 / RFU, DGCR2 / Fold change vs veh, DGCR2 / RFU, WDSUB1 / Fold change vs veh, WDSUB1 / Fold change vs veh, HSP90B1 /// MIR3652 / RFU, ADSS / Fold change vs veh, ADSS / RFU, GK / Fold change vs veh, GK / RFU, ZNF148 / Fold change vs veh, ZNF148 / RFU, TAF9 / Fold change vs veh, TAF9 / RFU, SLC1A5 / Fold change vs veh, SLC1A5 / RFU, SLMO2 / Fold change vs veh, SLMO2 / RFU, ABCC4 / Fold change vs veh, ABCC4 / RFU, LOC101060439 /// RAP1B / Fold change vs veh, LOC101060439 /// RAP1B / RFU, RFX7 / Fold change vs veh, RFX7 / RFU, GTPBP10 / Fold change vs veh, GTPBP10 / RFU, CNEP1R1 / Fold change vs veh, CNEP1R1 / RFU, BIVM-ERCC5 /// ERCC5 / Fold change vs veh, BIVM-ERCC5 /// ERCC5 / RFU, ILF3 / Fold change vs veh, ILF3 / RFU 11762660_at / Fold change /veh 11762660_at / RFU VCAN (11757783_s_at) / Fold change /veh VCAN (11757783_s_at) / RFU DDX43 (11728927_at) / Fold change /veh DDX43 (11728927_at) / RFU KRT8 (11758188_x_at) / Fold change /veh KRT8 (11758188_x_at) / RFU NKD1 (11759106_at) / Fold change /veh NKD1 (11759106_at) / RFU SRD5A1 (11742802_a_at) / Fold change /veh SRD5A1 (11742802_a_at) / RFU TPSAB1 /// TPSB2 (11721975_s_at) / Fold change /veh TPSAB1 /// TPSB2 (11721975_s_at) / RFU GSTM3 (11746129_a_at) / Fold change /veh GSTM3 (11746129_a_at) / RFU IL23R (11737362_x_at) / Fold change /veh IL23R (11737362_x_at) / RFU TMEM51 (11727254_a_at) / Fold change /veh TMEM51 (11727254_a_at) / RFU PIWIL2 (11732686_x_at) / Fold change /veh PIWIL2 (11732686_x_at) / RFU ORM1 (11744905_x_at) / Fold change /veh ORM1 (11744905_x_at) / RFU CCDC152 (11743942_at) / Fold change /veh CCDC152 (11743942_at) / RFU ECM1 (11717891_a_at) / Fold change /veh ECM1 (11717891_a_at) / RFU IL23R (11748794_a_at) / Fold change /veh IL23R (11748794_a_at) / RFU TNFAIP8L3 (11732012_x_at) / Fold change /veh TNFAIP8L3 (11732012_x_at) / RFU MBOAT4 (11741988_at) / Fold change /veh MBOAT4 (11741988_at) / RFU 11764193_at / Fold change /veh 11764193_at / RFU TMEM53 (11763286_at) / Fold change /veh TMEM53 (11763286_at) / RFU MAGEB2 (11727129_at) / Fold change /veh MAGEB2 (11727129_at) / RFU TMEM200A (11744735_a_at) / Fold change /veh TMEM200A (11744735_a_at) / RFU CCDC152 (11751479_a_at) / Fold change /veh CCDC152 (11751479_a_at) / RFU FAM211A (11726209_a_at) / Fold change /veh FAM211A (11726209_a_at) / RFU RGS16 (11746705_a_at) / Fold change /veh RGS16 (11746705_a_at) / RFU VCAN (11755009_s_at) / Fold change /veh VCAN (11755009_s_at) / RFU RHOB (11743442_s_at) / Fold change /veh RHOB (11743442_s_at) / RFU RGS16 (11720943_a_at) / Fold change /veh RGS16 (11720943_a_at) / RFU RGS16 (11720944_at) / Fold change /veh RGS16 (11720944_at) / RFU, VPS4B / Fold change vs veh, VPS4B / RFU, CREB1 / Fold change vs veh, CREB1 / RFU, DNAJC13 / Fold change vs veh, DNAJC13 / RFU, GNAQ / Fold change vs veh, GNAQ / RFU, CDK5R1 / Fold change vs veh, CDK5R1 / RFU, ZRANB3 / Fold change vs veh, ZRANB3 / RFU, CUL4A / Fold change vs veh, CUL4A / RFU, CCNY / Fold change vs veh, CCNY / RFU, UFL1 / Fold change vs veh, UFL1 / RFU, COG3 / Fold change vs veh, COG3 / RFU, DIAPH2 / Fold change vs veh, DIAPH2 / RFU, SKA2 / Fold change vs veh, SKA2 / RFU, AFF3 / Fold change vs veh, AFF3 / RFU, LMF1 / Fold change vs veh, LMF1 / RFU, IPO11 / Fold change vs veh, IPO11 / RFU, DFFB / Fold change vs veh, DFFB / RFU, FOXP1 / Fold change vs veh, FOXP1 / RFU, CARD8 / Fold change vs veh, CARD8 / RFU, STRN3 / Fold change vs veh, STRN3 / RFU, ADK / Fold change vs veh, ADK / RFU, RASSF2 / Fold change vs veh, RASSF2 / RFU, WIPF1 / Fold change vs veh, WIPF1 / RFU, LARP1B / Fold change vs veh, LARP1B / RFU, RASA1 / Fold change vs veh, RASA1 / RFU, RB1 / Fold change vs veh, RB1 / RFU, PPFIA1 / Fold change vs veh, PPFIA1 / RFU, MAT2A / Fold change vs veh, MAT2A / RFU, CCT5 / Fold change vs veh, CCT5 / RFU, WDR92 / Fold change vs veh, WDR92 / RFU, CUX1 / Fold change vs veh, CUX1 / RFU, TTC7A / Fold change vs veh, TTC7A / RFU, TMEM135 / Fold change vs veh, TMEM135 / RFU, DEPTOR / Fold change vs veh, DEPTOR / RFU, CPM / Fold change vs veh, CPM / RFU, DNAJB6 / Fold change vs veh, DNAJB6 / RFU, CACNA2D3 / Fold change vs veh, CACNA2D3 / RFU, DTX4 / Fold change vs veh, DTX4 / RFU, TFCP2 / Fold change vs veh, TFCP2 / RFU, GMCL1 /// GMCL1P1 / Fold change vs veh, GMCL1 /// GMCL1P1 / RFU, AEBP2 / Fold change vs veh, AEBP2 / RFU, SNHG1 /// SNORD22 /// SNORD25 /// SNORD26 /// SNORD27 /// SNORD28 /// SNORD29 /// SNORD31 / Fold change vs veh, SNHG1 /// SNORD22 /// SNORD25 /// SNORD26 /// SNORD27 /// SNORD28 /// SNORD29 /// SNORD31 / Fold change (Aza/veh), C12orf56 (ProbeSet 11735607_a_at) / Fold change (ACY-1035/veh), C12orf56 (ProbeSet 11735607_a_at) / Fold change (Aza/veh), FGFR1OP (ProbeSet 11751329_s_at) / Fold change (ACY-1035/veh), FGFR1OP (ProbeSet 11751329_s_at) / Fold change (Aza/veh), VPS36 (ProbeSet 11739960_a_at) / Fold change (ACY-1035/veh), VPS36 (ProbeSet 11739960_a_at) / RFU SYPL1 (11715823_x_at) / Fold change /veh SYPL1 (11715823_x_at) / RFU IGFBP7 (11715501_s_at) / Fold change /veh IGFBP7 (11715501_s_at) / RFU REEP3 (11722064_at) / Fold change /veh REEP3 (11722064_at) / RFU IGLL1 (11728026_x_at) / Fold change /veh IGLL1 (11728026_x_at): dose or concentration left out as unconfirmed.

Molecules are shown by their SMILES.

With `Nc1ncn([C@@H]2O[C@H](CO)[C@@H](O)[C@H]2O)c(=O)n1` [azacitidine], the “Fold change vs veh, GNAQ” value came out at 0.81.
